Data published in US9249125B2, “Pyrazole derivatives as p38 MAP inhibitors” (RESPIVERT LIMITED, priority 2012, dated 2016).

Experiments:
[1] = test system: LPS-induced TNFα release in d-U937 cells; assay: LPS-induced TNFα release in d-U937 cells; assay type: cell-based; conditions: Homo sapiens, dU937, relative to 10 μg/mL BIRB796, read-out: LPS Induced Release of Cytokine in d-937 Cells TNFα REC50
Experimental: (§1) U937 cells, a human monocytic cell line, are differentiated into macrophage-type cells by incubation with PMA (100 ng/mL) for 48 to 72 hr. Cells are pre-incubated with final concentrations of test compound for 2 hr and are then stimulated with LPS (0.1 μg/mL) (from E. coli: O111:B4, Sigma) for 4 hr. The supernatant is collected for determination of TNFα and IL-8 concentrations by sandwich ELISA (Duo-set, R&D systems). […] The relative 50% effective concentration (REC50) is determined from the resultant concentration-response curve. The inhibition of IL-8 production is calculated at each concentration of test compound by comparison with vehicle control. […] (b) LPS-Induced TNFα/IL-8 Release in PBMC Cells

[2] = test system: Poly I:C-induced ICAM-1 expression in BEAS2B cells; assay: Poly I:C-induced ICAM-1 expression in BEAS2B cells; assay type: cell-based; conditions: Homo sapiens, BEAS-2B, read-out: Poly IC induced ICAM1 in BEAS2B IC50
Experimental: Poly I:C is used in these studies as a simple, RNA virus mimic. Poly I:C-Oligofectamine mixture (1 μg/mL Poly I:C, ±2% Oligofectamine, 25 uL) (Invivogen Ltd., San Diego, Calif., and Invitrogen, Carlsbad, Calif., respectively) is transfected into BEAS2B cells (human bronchial epithelial cells, ATCC). Cells are pre-incubated with final concentrations of test compounds for 2 hr and the level of ICAM1 expression on the cell surface is determined by cell-based ELISA. At a time point 18 hr after poly I:C transfection, cells are fixed with 4% formaldehyde in PBS (100 μL) and then endogenous peroxidase is quenched by the addition of washing buffer (100 μL, 0.05% Tween in PBS: PBS-Tween) containing 0.1% sodium azide and 1% hydrogen peroxide. Cells are washed with wash-buffer (3×200 μL). and after blocking the wells with 5% milk in PBS-Tween (100 μL) for 1 hr, the cells are incubated with anti-human ICAM-1 antibody (50 μL) (Cell Signaling Technology, Danvers, Mass.) in 1% BSA PBS overnight at 4° C.
The cells are washed with PBS-Tween (3×200 μL) and incubated with the secondary antibody (100 μL) (HRP-conjugated anti-rabbit IgG, Dako Ltd., Glostrup, Denmark). The cells are then incubated with of substrate (50 μL) for 2-20 min, followed by the addition of stop solution (50 μL, 1N H2SO4). The ICAM-1 signal is detected by reading and reading the absorbance at 450 nm against a reference wavelength of 655 nm using a spectrophotometer. The cells are then washed with PBS-Tween (3×200 μL) and total cell numbers in each well are determined by reading absorbance at 595 nm after Crystal Violet staining (50 μL of a 2% solution in PBS) and elution by 1% SDS solution (100 μL) in distilled water. The measured OD 450-655 readings are corrected for cell number by dividing with the OD595 reading in each well.

cSrc = cSrc (Homo sapiens (Human), UniProt P12931); assay: c-Src enzyme inhibition (FRET, Z-LYTE); assay type: biochemical
Experimental: (§2) The enzyme inhibitory activities of compounds disclosed herein are determined by FRET using synthetic peptides labelled with both donor and acceptor fluorophores (Z-LYTE, Invitrogen Ltd., Paisley, UK).
(§3) The relevant enzyme (3000 ng/mL or 2000 ng/mL respectively, 2.5 μL) is incubated with the test compound (either 4 μg/mL, 0.4 μg/mL, 0.04 μg/mL, or 0.004 μg/mL, 2.5 μL each) for 2 hr at RT. The FRET peptides (8 μM, 2.5 μL), and appropriate ATP solutions (2.5 μL, 800 μM for c-Src, and 60 μM ATP for Syk) are then added to the enzymes/compound mixtures and incubated for 1 hr. Development reagent (protease, 5 μL) is added for 1 hr prior to detection in a fluorescence microplate reader (Varioskan® Flash, ThermoFisher Scientific).
(§4) In all cases, the site-specific protease cleaves non-phosphorylated peptide only and eliminates the FRET signal. Phosphorylation levels of each reaction are calculated using the ratio of coumarin emission (donor) over fluorescein emission (acceptor), for which low ratios indicate high phosphorylation and high ratios indicate low phosphorylation levels.

GSK3α = GSK3α (Homo sapiens (Human), UniProt P49840); assay: GSK 3α enzyme inhibition (FRET, Z-LYTE); assay type: biochemical
Experimental: as §2
The inhibitory activities of compounds of the invention against the GSK 3α enzyme isoform (Invitrogen), are evaluated by determining the level of activation/phosphorylation of the target peptide. The GSK3-α protein (500 ng/mL, 2.5 μL) is mixed with the test compound (2.5 μL at either 4 μg/mL, 0.4 μg/mL, 0.04 μg/mL, or 0.004 μg/mL) for 2 hr at RT. The FRET peptide (8 μM, 2.5 μL), which is a phosphorylation target for GSK3α, and ATP (40 μM, 2.5 μL) are then added to the enzyme/compound mixture and the resulting mixture incubated for 1 hr. Development reagent (protease, 5 μL) is added for 1 hr prior to detection in a fluorescence microplate reader (Varioskan® Flash, ThermoFisher Scientific).
as §4

d-U937 cells = assay: Cell viability: MTT assay; assay type: cell-based, human; conditions: 1 μg/mL
Experimental: Differentiated U937 cells are pre-incubated with each test compound (final concentration 1 μg/mL or 10 μg/mL in 200 μL media indicated below) under two protocols: the first for 4 hr in 5% FCS RPMI1640 media and the second in 10% FCS RPMI1640 media for 24 h. The supernatant is replaced with new media (200 μL) and MTT stock solution (10 μL, 5 mg/mL) is added to each well. After incubation for 1 hr the media are removed, DMSO (200 μL) is added to each well and the plates are shaken lightly for 1 hr prior to reading the absorbance at 550 nm. The percentage loss of cell viability is calculated for each well relative to vehicle (0.5% DMSO) treatment. Consequently an apparent increase in cell viability for drug treatment relative to vehicle is tabulated as a negative percentage.

Syk = Syk (Homo sapiens (Human), UniProt P43405); assay: Syk enzyme inhibition (FRET, Z-LYTE); assay type: biochemical
Experimental: as §2, §3, §4

[3] = test system: LPS-induced IL-8 release in d-U937 cells; assay: LPS-induced IL-8 release in d-U937 cells; assay type: cell-based; conditions: Homo sapiens, dU937, read-out: LPS Induced Release of Cytokine in d-937 Cells IL-8 IC50
Experimental: as §1

p38 MAPKα = p38 MAPKα (Homo sapiens (Human), UniProt Q16539); assay: p38 MAPKα enzyme inhibition (FRET, Z-LYTE); assay type: biochemical
Experimental: as §2
The inhibitory activities of test compounds against the p38 MAPKα isoform (MAPK14: Invitrogen), are evaluated indirectly by determining the level of activation/phosphorylation of the down-stream molecule, MAPKAP-K2. The p38 MAPKα protein (80 ng/mL, 2.5 μL) is mixed with the test compound (2.5 μL of either 4 μg/mL, 0.4 μg/mL, 0.04 μg/mL or 0.004 μg/mL) for 2 hr at RT. […] The mixture is incubated for 1 hr at RT. Development reagent (protease, 5 μL) is added for 1 hr prior to detection in a fluorescence microplate reader (Varioskan® Flash, ThermoFisher Scientific).
as §4

Chain of GSK3α (P49840 whole entry): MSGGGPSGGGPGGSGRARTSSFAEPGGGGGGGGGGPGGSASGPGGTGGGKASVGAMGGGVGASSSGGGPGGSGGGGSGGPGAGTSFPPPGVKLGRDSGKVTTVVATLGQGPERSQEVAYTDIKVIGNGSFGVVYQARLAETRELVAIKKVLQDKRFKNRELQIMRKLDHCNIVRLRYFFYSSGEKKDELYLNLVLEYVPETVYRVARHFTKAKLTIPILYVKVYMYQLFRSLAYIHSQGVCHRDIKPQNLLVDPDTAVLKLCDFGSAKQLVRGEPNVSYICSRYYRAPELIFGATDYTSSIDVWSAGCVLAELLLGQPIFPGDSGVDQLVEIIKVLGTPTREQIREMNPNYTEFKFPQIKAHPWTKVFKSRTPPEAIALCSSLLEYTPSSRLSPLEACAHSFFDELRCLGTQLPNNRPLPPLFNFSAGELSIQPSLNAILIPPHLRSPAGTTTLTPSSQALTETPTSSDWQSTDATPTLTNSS
Chain of p38 MAPKα (Q16539 whole entry): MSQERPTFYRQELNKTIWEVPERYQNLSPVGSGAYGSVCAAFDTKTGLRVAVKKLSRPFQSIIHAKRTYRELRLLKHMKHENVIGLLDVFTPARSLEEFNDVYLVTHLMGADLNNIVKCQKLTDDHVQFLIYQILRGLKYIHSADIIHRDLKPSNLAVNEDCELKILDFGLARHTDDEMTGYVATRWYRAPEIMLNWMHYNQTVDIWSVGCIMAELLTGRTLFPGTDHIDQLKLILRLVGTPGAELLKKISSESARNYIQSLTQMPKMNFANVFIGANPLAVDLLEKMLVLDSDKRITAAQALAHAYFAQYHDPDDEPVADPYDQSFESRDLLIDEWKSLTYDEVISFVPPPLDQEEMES
Chain of cSrc (P12931 whole entry, looked up): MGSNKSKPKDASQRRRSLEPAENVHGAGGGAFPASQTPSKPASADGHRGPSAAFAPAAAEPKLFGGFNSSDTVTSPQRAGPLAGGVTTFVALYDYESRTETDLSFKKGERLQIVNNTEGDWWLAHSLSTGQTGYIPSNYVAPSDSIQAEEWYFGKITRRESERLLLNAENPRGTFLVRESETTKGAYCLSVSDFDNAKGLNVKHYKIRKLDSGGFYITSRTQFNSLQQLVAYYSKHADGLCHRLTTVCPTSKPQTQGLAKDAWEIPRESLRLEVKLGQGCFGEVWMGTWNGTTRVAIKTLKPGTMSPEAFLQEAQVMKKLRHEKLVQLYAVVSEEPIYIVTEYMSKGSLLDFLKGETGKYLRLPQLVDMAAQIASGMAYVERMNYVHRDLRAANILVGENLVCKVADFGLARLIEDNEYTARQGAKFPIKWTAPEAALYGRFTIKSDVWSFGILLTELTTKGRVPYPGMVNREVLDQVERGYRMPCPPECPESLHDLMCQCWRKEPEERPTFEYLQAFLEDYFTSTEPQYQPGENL

Row | SMILES | EC50 [1] [µM] | IC50 [2] [µM] | IC50 (cSrc) [µM] | IC50 (GSK3α) [µM] | MTT Assay Cell viability at time point in d-U937 cells 4 h (d-U937 cells) | MTT Assay Cell viability at time point in d-U937 cells 24 h (d-U937 cells) | IC50 (Syk) [µM] | IC50 [3] [µM] | IC50 (p38 MAPKα) [µM]
1 | Cc1ccc(-n2nc(C(C)(C)C)cc2NC(=O)Nc2ccc(Oc3ccnc(Nc4ccc5[nH]ccc5c4)n3)c3ccccc23)cc1 [Example 1, 1-(4-((2-((1H-Indol-5-yl)amino)pyrimidin-4-yl)oxy)naphthalen-1-yl)-3-(3-(tert-butyl)-1-(p-tolyl)-1H-pyrazol-5-yl)urea] | 0.0017 | 0.0047 | 0.021 | > 1.61 | −ve (−ve and +ve indicate that the value is below and above respectively, the no significant effect threshold, defined as 30% inhibition at 1 μg/mL at the time point indicated.) | −ve (−ve and +ve indicate that the value is below and above respectively, the no significant effect threshold, defined as 30% inhibition at 1 μg/mL at the time point indicated.) | 0.05 | 0.0022 | 0.187
2 | Cc1ccc(-n2nc(C(C)(C)C)cc2NC(=O)Nc2ccc(Oc3ccnc(Nc4ccc5[nH]nc(C(=O)NCCN6CCOCC6)c5c4)n3)c3ccccc23)cc1 [Example 3, 5-((4-((4-(3-(3-(tert-Butyl)-1-(p-tolyl)-1H-pyrazol-5-yl)ureido)naphthalen-1-yl)oxy)pyrimidin-2-yl)amino)-N-(2-morpholinoethyl)-1H-indazole-3-carboxamide] | 0.0052 | 0.0068 | 0.006 | 2.33 | −ve (−ve and +ve indicate that the value is below and above respectively, the no significant effect threshold, defined as 30% inhibition at 1 μg/mL at the time point indicated.) | −ve (−ve and +ve indicate that the value is below and above respectively, the no significant effect threshold, defined as 30% inhibition at 1 μg/mL at the time point indicated.) | 0.095 | 0.0348 | 0.019
3 | Cc1ccc(-n2nc(C(C)(C)C)cc2NC(=O)Nc2ccc(Oc3ccnc(Nc4cnc5[nH]ncc5c4)n3)c3ccccc23)cc1 [Example 6, 1-(4-((2-((1H-Pyrazolo[3,4-b]pyridin-5-yl)amino)pyrimidin-4-yl)oxy)naphthalen-1-yl)-3-(3-(tert-butyl)-1-(p-tolyl)-1H-pyrazol-5-yl)urea] | 0.0016 | 0.0017 | 0.014 | > 16 | −ve (−ve and +ve indicate that the value is below and above respectively, the no significant effect threshold, defined as 30% inhibition at 1 μg/mL at the time point indicated.) | −ve (−ve and +ve indicate that the value is below and above respectively, the no significant effect threshold, defined as 30% inhibition at 1 μg/mL at the time point indicated.) | 0.162 | 0.0053 | 0.177
4 | CC(C)(C)c1cc(NC(=O)Nc2ccc(Oc3ccnc(Nc4ccc5[nH]ncc5c4)n3)c3ccccc23)n(-c2ccc(O)cc2)n1 [Example 7, 1-(4-((2-((1H-Indazol-5-yl)amino)pyrimidin-4-yl)oxy)naphthalen-1-yl)-3-(3-(tert-butyl)-1-(4-hydroxyphenyl)-1H-pyrazol-5-yl)urea] | 0.0062 | 0.0161 | 0.01 | > 1.6 | −ve (−ve and +ve indicate that the value is below and above respectively, the no significant effect threshold, defined as 30% inhibition at 1 μg/mL at the time point indicated.) | −ve (−ve and +ve indicate that the value is below and above respectively, the no significant effect threshold, defined as 30% inhibition at 1 μg/mL at the time point indicated.) | 0.024 | 0.0172 | 0.08
5 | Cc1ccc(-n2nc(C(C)(C)C)cc2NC(=O)Nc2ccc(Oc3ccnc(Nc4cccc5[nH]ncc45)n3)c3ccccc23)cc1 [Example 21] | 0.0017 | 0.003 | – | > 16 | −ve (−ve and +ve indicate that the value is below and above respectively, the no significant effect threshold, defined as 30% inhibition at 1 μg/mL at the time point indicated.) | −ve (−ve and +ve indicate that the value is below and above respectively, the no significant effect threshold, defined as 30% inhibition at 1 μg/mL at the time point indicated.) | 0.182 | 0.005 | –
6 | Cc1ccc(-n2nc(C(C)(C)C)cc2NC(=O)Nc2ccc(Oc3ccnc(Nc4cnc5[nH]ccc5c4)n3)c3ccccc23)cc1 [Example 32, 1-(4-((2-((1H-pyrrolo[2,3-b]pyridin-5-yl)amino)pyrimidin-4-yl)oxy)naphthalen-1-yl)-3-(3-(tert-butyl)-1-(p-tolyl)-1H-pyrazol-5-yl)urea] | 0.0017 | – | – | > 1.6 | −ve (−ve and +ve indicate that the value is below and above respectively, the no significant effect threshold, defined as 30% inhibition at 1 μg/mL at the time point indicated.) | −ve (−ve and +ve indicate that the value is below and above respectively, the no significant effect threshold, defined as 30% inhibition at 1 μg/mL at the time point indicated.) | – | 0.0006 | 0.079
